# Patent US20250213555A1, “SUBSTITUTED TETRAHYDROFURAN ANALOGS AS MODULATORS OF SODIUM CHANNELS” (VERTEX PHARMACEUTICALS INCORPORATED, priority 2021, published 2025)
# Biological target: human Nav 1.8 (Homo sapiens, UniProt Q9Y5Y9)
# Assay: E-VIPR assay detecting and measuring Nav inhibition properties
# Assay type: cell-based
# Details: HEK cells expressing a truncated form of human Nav 1.8; compound numbers without "*" (not marked as run in the presence of human serum); read-out: measured IC50 value in the E-VIPR Assay
# Procedure, shortened: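 Nav inhibition was read by E-VIPR: cells were electrically stimulated while coumarin/oxonol FRET emissions were recorded. Cells were HEK expressing a truncated human Nav 1.8 and co-transduced with KIR2.1, and were assayed in 25% final human serum.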
# Sequence of human Nav 1.8 (Q9Y5Y9 126-399 limits assumed): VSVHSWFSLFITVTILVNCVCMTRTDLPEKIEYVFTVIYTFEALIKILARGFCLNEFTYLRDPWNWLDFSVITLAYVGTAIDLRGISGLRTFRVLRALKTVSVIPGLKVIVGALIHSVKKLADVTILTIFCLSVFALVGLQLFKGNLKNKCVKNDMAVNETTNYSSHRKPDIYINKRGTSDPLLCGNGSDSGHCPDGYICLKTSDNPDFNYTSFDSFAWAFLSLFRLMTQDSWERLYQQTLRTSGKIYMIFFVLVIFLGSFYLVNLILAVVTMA
# Sequence of human Nav 1.8 (Q9Y5Y9 660-890 limits assumed): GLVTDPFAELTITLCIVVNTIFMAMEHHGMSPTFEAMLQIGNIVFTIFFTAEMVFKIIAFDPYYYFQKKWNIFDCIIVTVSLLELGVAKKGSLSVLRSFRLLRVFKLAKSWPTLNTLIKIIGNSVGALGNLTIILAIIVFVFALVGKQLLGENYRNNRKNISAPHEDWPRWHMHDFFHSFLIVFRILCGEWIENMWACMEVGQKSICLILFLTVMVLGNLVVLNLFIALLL
# Sequence of human Nav 1.8 (Q9Y5Y9 1148-1722 limits assumed): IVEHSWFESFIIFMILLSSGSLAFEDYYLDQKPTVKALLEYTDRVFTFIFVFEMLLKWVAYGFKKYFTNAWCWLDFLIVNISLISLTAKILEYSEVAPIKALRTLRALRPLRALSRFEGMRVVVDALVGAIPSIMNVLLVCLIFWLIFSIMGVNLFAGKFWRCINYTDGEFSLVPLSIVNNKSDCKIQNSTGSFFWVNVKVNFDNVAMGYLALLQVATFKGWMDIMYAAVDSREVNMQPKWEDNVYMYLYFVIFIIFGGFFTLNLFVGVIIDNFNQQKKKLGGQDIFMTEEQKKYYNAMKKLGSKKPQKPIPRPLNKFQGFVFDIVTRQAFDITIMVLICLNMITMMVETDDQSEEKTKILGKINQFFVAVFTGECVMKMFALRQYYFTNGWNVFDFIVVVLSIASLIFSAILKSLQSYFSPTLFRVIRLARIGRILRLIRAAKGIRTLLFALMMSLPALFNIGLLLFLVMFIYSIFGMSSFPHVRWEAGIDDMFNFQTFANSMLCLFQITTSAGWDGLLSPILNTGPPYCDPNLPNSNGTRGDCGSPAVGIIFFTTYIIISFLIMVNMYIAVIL
row,IC50,SMILES
1,10 to 100 nM,"COc1c([C@H]2[C@H](C(=O)Nc3ccnc(C(=O)N4C[C@@H](F)[C@H](N(C)C)C4)c3)O[C@@](C)(C(F)(F)F)[C@H]2C)ccc(F)c1F [Compound 299, (2R,3S,4S,5R)-3-(3,4-difluoro-2-methoxyphenyl)-N-(2-((3R,4R)-3-(dimethylamino)-4-fluoropyrrolidine-1-carbonyl)pyridin-4-yl)-4,5-dimethyl-5-(trifluoromethyl)tetrahydrofuran-2-carboxamide]"
2,10 to 100 nM,"COc1c([C@H]2[C@H](C(=O)Nc3ccnc(C(=O)N4C[C@@H](N(C)C)[C@@H](F)C4)c3)O[C@@](C)(C(F)(F)F)[C@H]2C)ccc(F)c1F [Compound 300, (2R,3S,4S,5R)-3-(3,4-difluoro-2-methoxyphenyl)-N-(2-((3R,4S)-3-(dimethylamino)-4-fluoropyrrolidine-1-carbonyl)pyridin-4-yl)-4,5-dimethyl-5-(trifluoromethyl)tetrahydrofuran-2-carboxamide]"
3,10 to 100 nM,"COc1c([C@H]2[C@H](C(=O)Nc3ccnc(C(=O)N4C[C@H](F)[C@@H](N(C)C)C4)c3)O[C@@](C)(C(F)(F)F)[C@H]2C)ccc(F)c1F [Compound 301, (2R,3S,4S,5R)-3-(3,4-difluoro-2-methoxyphenyl)-N-(2-((3S,4S)-3-(dimethylamino)-4-fluoropyrrolidine-1-carbonyl)pyridin-4-yl)-4,5-dimethyl-5-(trifluoromethyl)tetrahydrofuran-2-carboxamide]"
4,< 10 nM,"COc1c([C@H]2[C@H](C(=O)Nc3ccnc(C(=O)N4C[C@H](OC)[C@H](N(C)C)C4)c3)O[C@@](C)(C(F)(F)F)[C@H]2C)ccc(F)c1F [Compound 302, (2R,3S,4S,5R)-3-(3,4-difluoro-2-methoxyphenyl)-N-(2-((3R,4S)-3-(dimethylamino)-4-methoxypyrrolidine-1-carbonyl)pyridin-4-yl)-4,5-dimethyl-5-(trifluoromethyl)tetrahydrofuran-2-carboxamide]"
